Reference: ChEMBL document CHEMBL4665541, “Search for new therapeutic options for the uncommon pathogen Mycobacterium chimaera: an open drug discovery approach” (Lancet Microbe, 2021)

Tests used:
Format in all cases: functional, organism-based
Set-up in all cases: conc 20 uM
[1] = system: Mycobacterium intracellulare subsp. chimaera; assay: (§1) Inhibition of mycobacterial growth using the resazurin microtitre cell viability assay (REMA), compounds at final concentration of 20 µM (2% v/v DMSO). Hits were classed as compounds that inhibited bacterial growth by 70% or more compared to drug-free controls.; conditions: NCTC13781
[2] = system: Mycobacterium tuberculosis; assay: as §1; conditions: H37Rv
[3] = system: Mycobacteroides abscessus; assay: as §1; conditions: ATCC19977

Substance	Survival [1] [%]	Survival [2] [%]	Survival [3] [%]
MMV272144	105	85.8	110
MMV690028	92.3	95.8	120
MMV689480	95.5	98.5	112
MMV688704	98.7	92.8	106
MMV024443	101	102	94.5
MMV688798	95.2	102	103
MMV688774	79.3	100	107
MMV688776	100	127	115
MMV024937	111	88.4	103
MMV676602	111	105	95.5
MMV688472	92.3	98	103
MMV676380	86.9	97	102
MMV688853	102	94.5	111
MMV675998	94.7	89.7	117
MMV688938	88.3	119	118
MMV023860	90.3	84.6	117
MMV676477	73.1	4.54	111
MMV407539	98.9	85.3	103
MMV676524	97	23.4	114
MMV676605	110	99.5	122
MMV024114	106	126	121
MMV687798	1.47	7.23	11.5

Substance	Survival [1] [%]	Survival [2] [%]	Survival [3] [%]
MMV688350	92.5	105	102
MMV675997	98.5	99.4	105
MMV687800	6.51	6.34	109
MMV676048	94.4	90.5	114
MMV687749	96.9	73.3	113
MMV676528	102	88.7	115
MMV687796	102	9.75	99
MMV676600	90.1	91.1	125
MMV006901	120	86.8	102
MMV019742	97.5	96	103
MMV054312	76.8	46.8	111
MMV637953	117	102	145
MMV687762	101	95.8	112
MMV687188	73.5	43.4	110
MMV000062	85.2	18.8	109
MMV687246	110	90.9	119
MMV689244	107	90.1	115
MMV676382	99	88.4	122
MMV675996	94.3	102	94.2
MMV011691	103	86.2	104
MMV687273	110	31.5	111
MMV030734	89.4	82.6	111

Substance	Survival [1] [%]	Survival [2] [%]	Survival [3] [%]
MMV228911	89.5	114	97.2
MMV676597	99.5	98	113
MMV690102	111	106	113
MMV676270	102	82.7	108
MMV687729	30.5	13.1	112
MMV676409	85.7	19.2	122
MMV687239	97.5	68.1	108
MMV024829	103	88.9	119
MMV688470	95.7	94.8	106
MMV688345	86.9	86	113
MMV688762	96.2	89	121
MMV676509	89.8	85.9	113
MMV688180	101	94	116
MMV020710	95.7	86.9	123
MMV688941	104	69.8	120
MMV688274	112	86	113
MMV023183	104	88.3	119
MMV676358	92.3	98.4	114
MMV688891	113	101	109
MMV688330	103	99.6	99.9
MMV021660	107	67.5	102
MMV688548	101	91.6	115

Substance	Survival [1] [%]	Survival [2] [%]	Survival [3] [%]
MMV007625	104	90.4	123
MMV688703	103	102	108
MMV676476	100	72.8	108
MMV016838	91.7	78.9	109
MMV676604	104	95	119
MMV026550	98.7	88.2	111
MMV053220	97.9	90.6	115
MMV688410	105	95.3	105
MMV676401	88	95.8	113
MMV688361	88.9	92.9	116
MMV688756	2.59	13.4	50
MMV084864	100	84.2	101
MMV676603	101	38.4	112
MMV020291	103	90.7	121
MMV688362	90.2	103	109
MMV024397	98.2	88.8	118
MMV688921	109	110	110
MMV001625	101	90.5	121
MMV689028	127	121	121
MMV1088520	98.2	102	110
MMV688795	105	77.7	105
MMV688124	107	94.7	116

Substance	Survival [1] [%]	Survival [2] [%]	Survival [3] [%]
MMV688557	101	95.7	101
MMV687775	98.2	91	122
MMV688793	101	89.7	114
MMV392832	93.8	75.4	106
MMV688990	102	98.5	103
MMV020120	104	94.3	122
MMV023949	90.5	92.7	116
MMV023985	109	85.1	101
MMV007803	105	97.5	101
MMV007920	99.7	98	102
MMV023233	90.8	89.1	106
MMV687801	31.5	58.9	114
MMV687794	99.9	90.9	109
MMV688508	-0.22	7.31	18.6
MMV676520	85.8	43.4	100
MMV001493	106	93.6	128
MMV688283	112	89.4	116
MMV676384	101	54.5	109
MMV003152	96.7	92.7	111
MMV687172	101	129	98.3
MMV688411	89.9	90	114
